Reference: paper PMC6272152, “The Role of Phosphoglycans in the Susceptibility of Leishmania mexicana to the Temporin Family of Anti-Microbial Peptides” (Molecules, 2015)

Columns and labels:
[1] = system: L. mexicana ∆lpg1 promastigotes (lacking LPG); assay: alamarBlue viability assay, ∆lpg1 mutant promastigotes; assay type: cell-based, Leishmania mexicana; details: alamarBlue viability vs DMSO control, 2–100 µM peptide, 1 h preincubation serum-free at 26 °C, then 24 h, mean (range) of at least 3 independent experiments in triplicate
Method: Previously it has been postulated that LPG, which forms a thick negatively charged layer, protects the promatigote parasite from cationic AMPs by capturing them and preventing interaction with the cell surface. […] To test this hypothesis the five temporins were assayed for their activity against L. mexicana promastigotes engineered to lack LPG, ∆lpg1 [23]. […] The results obtained were perhaps surprising, with the temporins showing little or no difference in efficacy against the ∆lpg1 mutant when compared with the wild type L. mexicana promastigotes (Figure 1A and Figure 2A; Table 2). However, it is notable the that efficacy of temporins A and B have previously been reported to be unchanged against a similar, although less defined, L. donovani LPG mutant.
(§1) Figure 2 Activity of the temporin peptides against ∆lpg1 and ∆lpg2 promastigote L. mexicana. Using the alamarBlue® assay system, L. mexicana ∆lpg1 (A) and ∆lpg2 (B) mutant promastigote viability in the presence of various concentrations (2–100 µM) of the temporin peptides was determined with respect to a DMSO control. Amphotericin B (2–100 µM) was utilized as a positive control. Data points represent the mean of 3 independent experiments performed in triplicate. Standard deviation indicated. Cell viability <50% indicated by red bars.
(§2) Leishmania mexicana (MNYC/BZ/62/M379) wild type and LPG mutant parasites (∆lpg1 [23] and ∆lpg2 [25]) were maintained at 26 °C in Schneider’s Drosophila media (Sigma Aldrich) supplemented with heat inactivated foetal bovine sera (15% for promastigotes and mutants, and 20% for amastigotes; Biosera). Promastigotes were transformed into axenic amastigotes by a pH and temperature shift as previously described. Cells were counted using a Neubauer Improved Haemocytometer. Cytotoxicity analyses were performed in 96-well plates (Costar, Corning Inc., Amsterdam, The Netherlands) using alamarBlue® (Life Technologies, Paisley, UK) with some modifications to the published, optimized protocol. Briefly, to mitigate against the effects of serum on the efficacy of the peptides, promastigote and amastigote L. mexicana were preincubated (26 °C for promatastigotes; 33 °C for amastigotes) with the temporins (2–100 µM) in 10 µL of serum-free media at 4 × 10^6 mL^−1 for 1 h before the addition of 90 µL of complete media. Following incubation at the appropriate temperature for 24 h, 10 µL of alamarBlue® was added to each well and the plates incubated for a further 4 h prior to assessing cell viability using a fluorescent plate reader (Biotek UK, Potton, UK; 560EX nm/600EM nm). All data points were in triplicate, with amphotericin B as positive and DMSO as negative controls. All of the experiments described above were carried out on a minimum of three separate occasions to ensure a robust data set was collected.

[2] = system: L. mexicana promastigote (wild type); assay: alamarBlue viability assay, wild type promastigotes; assay type: cell-based, Leishmania mexicana (MNYC/BZ/62/M379); details: alamarBlue viability vs DMSO control, 2–100 µM peptide, 1 h preincubation in serum-free media at 26 °C, then complete media 24 h, alamarBlue 4 h, fluorescence, mean (range) of at least 3 independent experiments in triplicate
Method: as §1, with “Figure 1” for “Figure 2”, “against wild type promastigote” for “against ∆lpg1”, “and amastigote” for “and ∆lpg2 promastigote”, “mexicana promastigote” for “mexicana ∆lpg1”, “and amastigote” for “and ∆lpg2”, “(B)” for “(B) mutant promastigote”
as §2

L. donovani LPG mutant = details: similar, less defined LPG mutant; cited from earlier work
Text: Previously it has been postulated that LPG, which forms a thick negatively charged layer, protects the promatigote parasite from cationic AMPs by capturing them and preventing interaction with the cell surface. […] To t ...

L. mexicana amastigote = assay: alamarBlue viability assay, axenic amastigotes; assay type: cell-based, Leishmania mexicana (MNYC/BZ/62/M379); details: for ED50 L. mexicana Amastigote: alamarBlue viability vs DMSO control, 2–100 µM peptide, 1 h preincubation in serum-free media at 33 °C, then complete media 24 h, alamarBlue 4 h, fluorescence, mean (range) of at least 3 independent experiments in triplicate
Method: as §1, with “Figure 1” for “Figure 2”, “against wild type promastigote” for “against ∆lpg1”, “and amastigote” for “and ∆lpg2 promastigote”, “mexicana promastigote” for “mexicana ∆lpg1”, “and amastigote” for “and ∆lpg2”, “(B)” for “(B) mutant promastigote”
as §2

[3] = system: L. pifanoi axenic amastigotes; details: cited from earlier work
Text: (§3) L. infantum is an Old World species and a member of the L. donovani complex, causing visceral disease in the Mediterranean basin, which has subsequently spread to Latin America where it is sometimes known as L. chagasi. Like L. mexicana, L. pifanoi is a New World species, however it is part of the subgenus Viannia whereas L. mexicana is part of the subgenus Leishmania which actually makes it ...

[4] = system: L. mexicana ∆lpg2 promastigotes (lacking LPG and PPG); assay: alamarBlue viability assay, ∆lpg2 mutant promastigotes; assay type: cell-based, Leishmania mexicana; details: for ED50 L. mexicana ∆lpg2: ∆lpg2 mutant promastigotes, alamarBlue viability vs DMSO control, 2–100 µM peptide, 1 h preincubation serum-free at 26 °C, then 24 h, mean (range) of at least 3 independent experiments in triplicate
Method: as §1
Proteophosphogylcans (PPGs) are a large range of secreted and cell surface associated parasite glycoconjugates which, like LPG, carry a negative charge. Both axenic and intramacrophage L. mexicana amastigotes lack cell surface associated PPG, although the intracellular parasites do secrete a form of PPG known as aPPG [26, 27]. Targeted deletion of lpg2, a Golgi GDP-Man transporter, to create ∆lpg2 [25] prevented the formation of the phosphoglycan repeats that make up the backbone of LPG and PPG leaving the promastigote surface devoid of these negatively charged macromolecules. […] Like the temporins, amphotericin B is a pore forming compound [28].
as §2

[5] = system: L. infantum axenic amastigotes; details: cited from earlier work
Text: as §3

For “FLPLIGRVLSGIL-NH2 [Temporin A, amphibian-derived temporin antimicrobial peptide, […]-NH2]”, the “ED50 L. mexicana ∆lpg1” value [1] was 11 (8–16) µM, the “ED50 L. mexicana Promastiogte” value [2] was 8 (6–14) µM and the “ED50 L. mexicana Promastiogte” value ([2]; listed as temporin A) was 8 µM. For the same compound, the “efficacy against L. donovani LPG mutant” value (L. donovani LPG mutant) was “unchanged”, the “ED50 L. mexicana Amastigote” value (L. mexicana amastigote) was ~100 µM and the “ED50 L. mexicana Amastigote” value (L. mexicana amastigote; listed as temporin A) was “approximately 100 µM”. The “activity against axenic amastigotes of L. pifanoi” value [3] was “significant activity”, the “ED50 L. mexicana ∆lpg2” value [4] was 26 (21–39) µM and the “ED50 L. mexicana ∆lpg2” value ([4]; listed as temporin A) was 26 µM.

For C[C@@H]1[C@H](O)[C@@H](C)/C=C/C=C/C=C/C=C/C=C/C=C/C=C/[C@H](O[C@@H]2O[C@H](C)[C@@H](O)[C@H](N)[C@@H]2O)C[C@@H]2O[C@](O)(C[C@@H](O)C[C@@H](O)[C@H](O)CC[C@@H](O)C[C@@H](O)CC(=O)O[C@H]1C)C[C@H](O)[C@H]2C(=O)O [amphotericin B, Amphotericin B, reference compound], the “efficacy against ∆lpg2 compared with wild type promastigotes” value ([4]; positive control, 2–100 µM, alamarBlue, Figure 2B) was “less effective”.

In the case of “FVQWFSKFLGRIL-NH2 [Temporin L, amphibian-derived temporin antimicrobial peptide, …-NH2]”, the “ED50 L. mexicana ∆lpg1” value [1] is reported as 4 (3–6) µM, the “ED50 L. mexicana Promastiogte” value [2] is reported as 5 (5–6) µM and the “ED50 L. mexicana Promastiogte” value ([2]; listed as L) is reported as 5 µM. The “ED50 L. mexicana Amastigote” value (L. mexicana amastigote) was 83 (46–93) µM, the “ED50 L. mexicana Amastigote” value (L. mexicana amastigote; listed as L) was 83 µM and the “ED50 L. mexicana ∆lpg2” value [4] was 9 (8–12) µM. For the same compound, the “ED50 L. mexicana ∆lpg2” value ([4]; listed as L) was 9 µM.

In the case of “FLSGIVGMLGKLF-NH2 [Temporin 1Sa, amphibian-derived temporin antimicrobial peptide, […]-NH2]”, the “ED50 L. mexicana ∆lpg1” value [1] is reported as 6 (3–18) µM, the “ED50 L. mexicana Promastiogte” value [2] is reported as 4 (3–13) µM and the “ED50 L. mexicana Promastiogte” value ([2]; listed as temporin 1Sa) is reported as 4 µM. The “ED50 L. mexicana Amastigote” value (L. mexicana amastigote) was 42 (35–44) µM, the “ED50 L. mexicana Amastigote” value (L. mexicana amastigote; listed as 1Sa) was 42 µM and the “activity against axenic amastigotes of L. infantum” value [5] was “significant activity”. The “ED50 L. mexicana ∆lpg2” value [4] was 31 (28–35) µM and the “ED50 L. mexicana ∆lpg2” value ([4]; listed as 1Sa) was 31 µM.

In the case of “LLPIVGNLLKSLL-NH2 [Temporin B, amphibian-derived temporin antimicrobial peptide, […]-NH2]”, the “ED50 L. mexicana ∆lpg1” value [1] is reported as 39 (28–70) µM, the “ED50 L. mexicana Promastiogte” value [2] is reported as 38 (24–64) µM and the “ED50 L. mexicana Promastiogte” value ([2]; listed as temporin B) is reported as 38 µM. The “efficacy against L. donovani LPG mutant” value (L. donovani LPG mutant) was “unchanged”, the “activity against amastigote form at the maximal concentration tested” value (L. mexicana amastigote; 100 µM, alamarBlue) was “inactive” and the “ED50 L. mexicana Amastigote” value (L. mexicana amastigote) was >100 µM. For the same compound, the “activity against axenic amastigotes of L. pifanoi” value [3] was “significant activity” and the “ED50 L. mexicana ∆lpg2” value [4] was 41 (40–41) µM.
